Experimental data: US8569339B2, “Soluble guanylate cyclase activators” (Boehringer Ingelheim International GmbH, priority 2011, dated 2013)
In brackets after ≈: the same amount, converted by molar mass.

Experiments:
[1] = target: T1, Recombinant human soluble guanylate cyclase (sGC) (Homo sapiens, UniProt Q02153); test: Molecular assay: activation of heme-free sGC, cGMP detection (CisBio kit); format: biochemical; conditions: 300 pM heme-free sGC, 37° C., 60 minutes, cGMP formation
T1 construct: histidine tag (C); made in house; host or cells: Sf9 insect cells (baculovirus coinfection)
Description: The compounds of the invention may be evaluated in the following molecular assay:
Recombinant human soluble guanylate cyclase (sGC) is purified from Sf9 insect cells coinfected with baculoviruses expressing the alpha 1 or beta 1 subunit of sGC, both with a C-terminal histidine tag. Heme-free sGC is prepared by treating cell lysate with a final concentration of 0.5% Tween 20 prior to purification on a nickel affinity column.
sGC catalyzes the conversion of guanosine-5′-triphosphate (GTP) to cyclic guanosine monophosphate (cGMP). The activity of sGC is measured in vitro using the commercially available CisBio cGMP detection kit (catalog #62GM2PEB) in a 384 well format. In brief, 300 pM heme-free sGC is incubated in reaction buffer (50 mM MOPS pH 6.8, 0.2 N KOH, 50 mM NaCl, 2 mM MgCl2, 0.1% BSA, 1.25 mM IBMX, 0.25 mM TCEP, 50 nM GTP) in the presence or absence of dilutions of test compounds diluted in DMSO (final concentration of 1%) in a volume of 10 microL at 37° C. for 60 minutes. Undiluted reaction products or an 80-fold dilution of reaction products (10 microL of either) prepared in reaction buffer containing 0.2 mM TCEP and 10 mM EDTA is mixed with 5 microL of d2-cGMP plus 5 microL of Eu^3+cryptate-labeled anti-cGMP, each diluted in buffer containing 0.1 M KPO4 pH 7.5, 0.4 M KF, 20 mM EDTA, 0.2% BSA. After a one hour incubation at room temperature in the dark, the mixtures are quantified on an EnVision plate reader (PerkinElmer) according to manufacturer instructions (laser excitation 337 nm, emission 620 and 665 nm). The ratio at each compound concentration is converted to nM cGMP using the linear portion of a calibration curve. Log compound concentration is plotted against combined undiluted and diluted nM cGMP values to determine the EC50 for each curve.
Representative compounds of the present invention were tested for activity in the above assay. Preferred compounds have an IC50<5,000 nM and more preferred compounds have an IC50<100 nM in this assay.

[2] = Assessment of solubility (HT solubility, pION, UV); format: physicochemical; conditions: incubated 16-19 hours, 1.0% DMSO, 100 uM; for solubility kinetic: pH 4.5 buffer (pION system solution), pH 4.5, aqueous buffer, kinetic from dmso stock, pH 4.5 buffer, read-out: Sol pH 4.5; for Sol pH 7.4: pH 7.4 buffer
Description: Solubility is measured by the following method.
DMSO stock samples at 10 mM conc are prepared. […] The samples are pierced and 100 ul of thawed samples are transferred into the PCR plate for analysis. Each sample is run in duplicate at each pH (pH 4.5 and 7.4). Up to 95 samples can be run in replicate at 2 pH's+1 DMSO (blank).
2. Preparation of pH 4.5 and 7.4 buffers:
pH 4.5 buffer: To 12.5 of system solution (pION) qs to 500 mL of distilled water (pH 2.85-2.90); adjust the pH to pH 4.5 with 0.5 N NaOH.
pH 7.4 buffer: To 12.5 of system solution (pION) qs to 500 mL of distilled water (pH 2.85-2.90); adjust the pH to pH 7.4 with 0.5N NaOH.
Preparation of UV blank plate:
75 ul of buffer (pH 7.4 or pH 4.5) is added to UV plate followed by addition of […] of N-propanol. The solution is mixed and the blank spectrum is read using spectrophotometer.
Preparation of Reference UV plate:
10 ul of each stock sample (including DMSO control) is added to 190 ul of N-propanol to prepare the reference stock plate. Reference stock samples are mixed and 5 ul of each stock sample is added to UV blank plate after it is read spectrophotometrically. The reference stock sample is mixed with blank solution in UV plate and the reference spectrum is read using UV spectrophotometer.
Preparation of sample for incubation:
Solubility at pH 7.4: 6 ul of each stock sample (including DMSO control) is added to the storage plate containing 600 ul of pH 7.4 buffer, mixed and incubated for 16-19 hours. The plate is sealed well during the incubation process. The DMSO content in the sample is 1.0%. The concn in deep well plates is 100 uM
6 ul of each stock sample (including DMSO control) is added to the deep well plate containing 600 ul of pH 4.5 buffer, mixed and incubated for 16-19 hours. The plate is sealed well during the incubation process. The DMSO content in the sample is 1.0%. The concn in deep well plates is 100 uM
Preparation of sample UV plate:
At the end of the incubation period, 100 uL of sample from the storage plate is vacuum filtered using a filter plate. This step wets the filters and the filtrate is discarded. Another 200 ul of the sample from the deep well plate is vacuum filtered using the same filter block but a clean filter plate. 75 ul of the filtrate from the filter plate is transferred to a UV sample plate. 75 ul of N-propanol is added to this UV plate. The solution is mixed and the spectrum is read using the UV spectrophotometer.
The spectra collected for blank, reference and sample from 250-498 nm is analyzed using pION software. If the sample precipitates out, the solubility is reported as XX μg/ml. If there is no precipitation and the sample is soluble, solubility is reported as […] (YY being the initial concentration of the compound in the sample).

T1 sequence (Q02108 whole entry partner): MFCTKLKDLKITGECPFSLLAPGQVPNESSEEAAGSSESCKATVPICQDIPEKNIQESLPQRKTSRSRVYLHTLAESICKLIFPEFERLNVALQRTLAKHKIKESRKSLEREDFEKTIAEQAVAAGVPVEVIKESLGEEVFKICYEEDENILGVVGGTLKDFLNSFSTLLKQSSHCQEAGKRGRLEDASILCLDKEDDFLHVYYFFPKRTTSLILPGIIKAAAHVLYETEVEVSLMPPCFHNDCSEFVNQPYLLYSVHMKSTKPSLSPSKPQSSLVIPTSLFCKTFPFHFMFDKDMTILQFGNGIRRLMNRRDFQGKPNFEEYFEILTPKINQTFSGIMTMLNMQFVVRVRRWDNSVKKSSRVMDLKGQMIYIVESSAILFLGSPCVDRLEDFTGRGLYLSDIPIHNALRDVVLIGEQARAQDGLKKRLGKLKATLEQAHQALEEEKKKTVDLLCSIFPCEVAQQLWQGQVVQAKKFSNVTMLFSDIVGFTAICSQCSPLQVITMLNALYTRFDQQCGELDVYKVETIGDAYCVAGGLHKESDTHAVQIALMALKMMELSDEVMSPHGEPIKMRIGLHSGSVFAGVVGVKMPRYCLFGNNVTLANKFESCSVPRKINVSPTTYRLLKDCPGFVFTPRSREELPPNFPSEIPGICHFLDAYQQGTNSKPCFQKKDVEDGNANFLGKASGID
T1 sequence (Q02153 whole entry): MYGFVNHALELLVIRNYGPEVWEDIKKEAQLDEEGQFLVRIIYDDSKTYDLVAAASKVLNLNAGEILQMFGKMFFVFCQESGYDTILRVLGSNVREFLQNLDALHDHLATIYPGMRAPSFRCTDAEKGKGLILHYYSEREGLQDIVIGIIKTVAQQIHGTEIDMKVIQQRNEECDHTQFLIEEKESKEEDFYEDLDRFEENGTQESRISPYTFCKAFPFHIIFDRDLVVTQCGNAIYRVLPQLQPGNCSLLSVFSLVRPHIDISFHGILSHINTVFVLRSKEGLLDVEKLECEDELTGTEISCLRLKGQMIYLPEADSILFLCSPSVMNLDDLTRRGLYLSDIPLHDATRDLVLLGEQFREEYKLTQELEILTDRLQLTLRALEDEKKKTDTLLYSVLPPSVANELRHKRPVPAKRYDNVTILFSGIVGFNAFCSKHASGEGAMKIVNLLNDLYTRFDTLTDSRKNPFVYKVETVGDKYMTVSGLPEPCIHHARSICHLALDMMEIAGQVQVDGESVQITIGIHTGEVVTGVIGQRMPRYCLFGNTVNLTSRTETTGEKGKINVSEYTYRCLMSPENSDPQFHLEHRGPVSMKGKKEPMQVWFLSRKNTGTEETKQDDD

Row | SMILES | EC50 [1] [nM] | solubility kinetic [2] [µg/mL] | Sol pH 7.4 [2] [μg/mL]
1 | Cc1ccc(OCc2ccc3c(c2)CCN(C2CCOCC2)C3)c(-c2cccc(-n3cnc(C(=O)O)c3C)n2)c1 [Compound 58] | 2600 | > 78 | >78
2 | Cc1cccc(-c2cccc(-c3ncc(C(=O)O)n3C)n2)c1OCc1ccc2c(c1)CCN(C1CCOCC1)C2 [Compound 67] | 234 | > 78 | 54.2
3 | Cc1ccc(OCc2ccc3c(c2C)CCN(C)C3)c(-c2cccc(-n3ncc(C(=O)O)c3C(F)(F)F)n2)c1 [Compound 38] | 46 | 15.5 (≈ 28.9 µM) | 18.4
4 | Cc1ccc(OCc2ccc3c(c2)CCN(C2CCC(C(F)(F)F)CC2)C3)c(-c2cccc(-n3ncc(C(=O)O)c3C(F)(F)F)n2)c1 (centres unmarked) [Compound 33] | 6 | 6.3 (≈ 9.57 µM) | 4.6
5 | CCn1nc(C(=O)O)c(C)c1-c1cccc(-c2cccc(C)c2OCc2ccc3c(c2)CCN(C2CCOCC2)C3)n1 [Compound 82] | 210 | > 67 | >67
6 | Cc1ccc(OCc2ccc3c(c2)CCN(Cc2cncn2C)C3)c(-c2cccc(-n3ncc(C(=O)O)c3C(F)(F)F)n2)c1 [Compound 30] | 71 | > 60 | >60
7 | Cc1ccc(OCc2ccc3c(c2)CCN(C)C3)c(-c2cccc(-c3sc(C(=O)O)cc3C)n2)c1 [Compound 37, 4-methyl-5-{6-[5-methyl-2-(2-methyl-1,2,3,4-tetrahydro-isoquinolin-6-ylmethoxy)phenyl]pyridin-2-yl}-thiophene-2-carboxylic acid] | 198 | 14.1 (≈ 29.1 µM) | 27.4
8 | CC(=O)N1CCc2cc(COc3ccc(C)cc3-c3cccc(-n4ncc(C(=O)O)c4C(F)(F)F)n3)ccc2C1 [Compound 6, 1-{6-[2-(2-acetyl-1,2,3,4-tetrahydroisoquinolin-6-ylmethoxy)-5-methylphenyl]pyridin-2-yl}-5-trifluoromethyl-1H-pyrazole-4-carboxylic acid] | 78 | 0.5 (≈ 0.908 µM) | >54
9 | Cc1cccc(-c2cccc(-c3c(C)c(C(=O)O)nn3C3CC3)n2)c1OCc1ccc2c(c1)CCN(C1CCOCC1)C2 [Compound 91] | 160 | > 69 | >69
10 | Cc1cccc(-c2cccc(-c3c(C)c(C(=O)O)nn3C(C)(C)C)n2)c1OCc1ccc2c(c1)CCN(C1CCOCC1)C2 [Compound 84] | 69 | > 70 | >70
11 | Cc1ccc(OCc2ccc3c(c2)CCN(C(C)C)C3)c(-c2cccc(-n3ncc(C(=O)O)c3C(F)(F)F)n2)c1 [Compound 21] | 25 | > 55 | >55
12 | Cc1ccc(OCc2ccc3c(c2)CCN(C2CCOCC2)C3)c(-c2cccc(-c3ncc(C(=O)O)n3C)n2)c1 [Compound 66] | 1830 | > 53 | >53
13 | Cc1cccc(-c2cccc(-c3c(C)c(C(=O)O)nn3CCC(=O)O)n2)c1OCc1ccc2c(c1)CCN(C1CCOCC1)C2 [Compound 85] | 94 | > 60 | >60
14 | Cc1cccc(-c2cccc(-n3cnc(C(=O)O)c3C)n2)c1OCc1ccc2c(c1C)CCN(Cc1ccccn1)C2 [Compound 56] | 31 | > 65 | >65
15 | Cn1c(C(=O)O)cnc1-c1cccc(-c2cccc(C(F)(F)F)c2OCc2ccc3c(c2)CCN(C2CCOCC2)C3)n1 [Compound 61] | 75 | > 110 | >110
16 | Cc1ccc(OCc2ccc3c(c2)CCN(Cc2cc(C)on2)C3)c(-c2cccc(-n3ncc(C(=O)O)c3C(F)(F)F)n2)c1 [Compound 31] | 2 | 22 (≈ 36.4 µM) | >60
17 | Cc1ccc(OCc2ccc3c(c2)CCN(C(C)c2cnccn2)C3)c(-c2cccc(-n3ncc(C(=O)O)c3C(F)(F)F)n2)c1 (centres unmarked) [Compound 28] | 9 | > 61 | >61
18 | Cc1ccc(OCc2ccc3c(c2)CCN(CC2CCOC2)C3)c(-c2cccc(-c3csc(C(=O)O)c3C)n2)c1 (centres unmarked) [Compound 51] | 340 | 44.7 (≈ 80.6 µM) | 35.9
19 | Cc1ccc(OCc2ccc3c(c2)CCN(C2CCOCC2)C3)c(-c2cccc(-n3ncc(C(=O)O)c3C)n2)c1 [Compound 65] | 134 | > 53 | >53
20 | Cc1ccc(OCc2ccc3c(c2C)CCN(C2CCOC2)C3)c(-c2cccc(-c3csc(C(=O)O)c3C)n2)c1 (centres unmarked) [Compound 53] | 47 | 40.1 (≈ 72.3 µM) | 51.4
21 | Cc1ccc(OCc2ccc3c(c2)CCN(CCC2CCOCC2)C3)c(-c2cccc(-n3ncc(C(=O)O)c3C(F)(F)F)n2)c1 [Compound 25] | 19 | > 62 | >62
22 | Cc1ccc(OCc2ccc3snnc3c2)c(-c2cccc(-n3ncc(C(=O)O)c3C(F)(F)F)n2)c1 [Compound 7, 1-{6-[2-(benzo[1,2,3]thiadiazol-5-ylmethyoxy)-5-methylphenyl]pyridin-2-yl}-5-trifluoromethyl-1H-pyrazole-4-carboxylic acid] | 490 | 2.1 (≈ 4.11 µM) | >51
23 | Cc1ccc(OCc2ccc3c(c2)CCN(S(=O)(=O)CCCC(=O)O)C3)c(-c2cccc(-n3ncc(C(=O)O)c3C(F)(F)F)n2)c1 [Compound 3, 1-(6-{2-[2-(3-carboxypropane-1-sulfonyl)-1,2,3,4-tetrahydroisoquinolin-6-ylmethoxy]-5-methylphenyl}pyridin-2-yl)-5-trifluoromethyl-1H-pyrazole-4-carboxylic acid] | 27 | 0.8 (≈ 1.21 µM) | >65
24 | Cc1cccc(-c2cccc(-n3cnc(C(=O)O)c3C)n2)c1OCc1ccc2c(c1C)CCN(C1CCOC1)C2 (centres unmarked) [Compound 55] | 44 | > 63 | >63
25 | Cc1cccc(-c2cccc(-c3ncc(C(=O)O)n3C)n2)c1OCc1ccc2c(c1)CCN(CC1CCOCC1)C2 [Compound 68] | 180 |  | 
26 | Cc1csc(CN2CCc3cc(COc4c(C)cccc4-c4cccc(-c5ncc(C(=O)O)n5C)n4)ccc3C2)n1 [Compound 69] | 8 |  | 
